Reference: patent US20240024403A1, “Compositions and Methods for Managing Weight” (Unigen, Inc., priority 2012, published 2024)

Test: High fat diet induced obesity (DIO) mouse model
Assay type: in vivo, C57CL/6J mice
Conditions: for Total Body Weight / Body Weight: in g (unit assumed)
Method: C57CL/6J mice aged 4-6 weeks (Korea Research Institute of Bioscience & Biotechnology, Ohchang, Korea) were housed in Polycarbonate cages (five mice per cage) in a room with a 12 hr:12 hr light-dark cycle and an ambient temperature of 24° C. All the mice were fed a commercial chow diet for 1 week after arrival in the animal facility. Mice were then divided into normal and obesity groups and fed with normal diet (ND) and high fat diets (HFD) respectively. The HFD group was divided into multiple treatment groups: a high fat diet vehicle group (HFD), an orlistat (purchased as OTC drug Alli®) positive control treatment group (ORI, 40 mg/kg of animal weight, 2 times/day) and optionally a sibutramine positive control treatment group (10 mg/kg, 1 time/day). The HFD contained 340 g of fat/kg of HFD (310 g lard plus 30 g soybean oil; Harlan Laboratories, USA). The HFD was formulated to provide 60% of the total energy generated by the diet from fat by replacing carbohydrate energy with lard and soybean oil, whereas the normal diet (ND) group was fed a diet providing only 18% of the total diet energy from fat(Harlan Laboratories, USA).
Body weight was measured once each week and feed intake was measured twice per week. At the end of the experimental period, following a 12 hr. fasting period, the animals were anesthetized with ether, and blood was drawn from the abdominal vein. Liver and kidney and adipose tissues (epididymal, retroperitoneal, perirenal adipose tissues) were removed from each animal, rinsed with physiological saline, and weighed. Serum concentrations of glucose, total cholesterol, triglycerides, and LDL-cholesterol were determined using automatic analyzer (INTEGRA 400, Roche, Germany). Statistical significance of test results was measured using the Student's t-test.

[1] = week 3, mice fed a high fat diet, Mutamba fractions 250 mg/kg oral 2 times per day, mean
[2] = week 4, DIO mice, oral twice daily, mg/kg/day: ORI 40, Combo (Composition 1A) 800, Magnolia 100, Yerba Mate 500, Morus 200
[3] = week 4, DIO mice, combination (5:1) 1200 mg/kg twice a day by gavage, group mean
[4] = week 4, mice fed a high fat diet, Mutamba fractions 250 mg/kg oral 2 times per day, mean
[5] = week 5, DIO mice, oral twice daily, mg/kg/day: ORI 40, Combo (Composition 1A) 800, Magnolia 100, Yerba Mate 500, Morus 200
[6] = week 5, DIO mice, combination (5:1) 1200 mg/kg twice a day by gavage, group mean
[7] = week 5, mice fed a high fat diet, Mutamba fractions 250 mg/kg oral 2 times per day, mean
[8] = week 6, DIO mice, oral twice daily, mg/kg/day: ORI 40, Combo (Composition 1A) 800, Magnolia 100, Yerba Mate 500, Morus 200
[9] = week 6, DIO mice, combination (5:1) 1200 mg/kg twice a day by gavage, group mean
[10] = week 6, mice fed a high fat diet, Mutamba fractions 250 mg/kg oral 2 times per day, mean
[11] = week 7, DIO mice, oral twice daily, mg/kg/day: ORI 40, Combo (Composition 1A) 800, Magnolia 100, Yerba Mate 500, Morus 200
[12] = week 7, DIO mice, combination (5:1) 1200 mg/kg twice a day by gavage, group mean
[13] = week 7, mice fed a high fat diet, Mutamba fractions 250 mg/kg oral 2 times per day, mean
[14] = week 8, DIO mice, oral twice daily, mg/kg/day: ORI 40, Combo (Composition 1A) 800, Magnolia 100, Yerba Mate 500, Morus 200
[15] = week 8, mice fed a high fat diet, Mutamba fractions 250 mg/kg oral 2 times per day, mean

## CCCCCCCCCCC[C@@H](C[C@@H]1OC(=O)[C@H]1CCCCCC)OC(=O)[C@H](CC(C)C)NC=O [ORI, orlistat]
Week 3, DIO mice, combination (5:1) 1200 mg/kg twice a day by gavage, group mean
  Total Body Weight: 35.12
Week 3, ORI 40 mg/kg, DIO mice (Table 52)
  Total Body Weight: 37.41
Week 3, ORI 40 mg/kg, DIO mice
  Total Body Weight: 35.66
Week 3, ORI 40 mg/kg, mice fed high fat diet
  Body Weight Gain: −6.70
[1]
  Body Weight Gain: −2.63
  Body Weight: 37.14
Week 3, orlistat 40 mg/kg oral
  Weight Gain: −5.27
[2]
  Weight Gain: −3.84
  Total Body Weight: 36.38
Week 4, DIO mice, SIB 10 mg/kg, ORI 40 mg/kg, Mutamba extract 32 (G1) 1000 mg/kg/day oral, mean
  Body Weight Gain: −2.35
Week 4, DIO mice, SIB 10 mg/kg, ORI 40 mg/kg, Mutamba extract 33-2 G1 1000 mg/kg, mean
  Body Weight Gain: −1.28
Week 4, DIO mice, combination (1:1) 2000 mg/kg twice a day, group mean
  Weight Gain: −2.61
[3]
  Weight Gain: −2.61
  Total Body Weight: 35.84
Week 4, ORI 40 mg/kg, DIO mice (Table 52)
  Total Body Weight: 37.60
Week 4, ORI 40 mg/kg, DIO mice
  Total Body Weight: 37.28
Week 4, ORI 40 mg/kg, mice fed high fat diet
  Body Weight Gain: −5.01
[4]
  Body Weight Gain: −1.28
  Body Weight: 38.49
Week 4, orlistat 40 mg/kg oral
  Weight Gain: −3.47
[5]
  Weight Gain: −2.57
  Total Body Weight: 37.65
Week 5, DIO mice, SIB 10 mg/kg, ORI 40 mg/kg, Mutamba extract 32 (G1) 1000 mg/kg/day oral, mean
  Body Weight Gain: −1.84
Week 5, DIO mice, SIB 10 mg/kg, ORI 40 mg/kg, Mutamba extract 33-2 G1 1000 mg/kg, mean
  Body Weight Gain: 0.43
Week 5, DIO mice, combination (1:1) 2000 mg/kg twice a day, group mean
  Weight Gain: −2.04
[6]
  Weight Gain: −2.04
  Total Body Weight: 36.41
Week 5, ORI 40 mg/kg, DIO mice (Table 52)
  Total Body Weight: 38.12
Week 5, ORI 40 mg/kg, DIO mice
  Total Body Weight: 38.57
Week 5, ORI 40 mg/kg, mice fed high fat diet
  Body Weight Gain: −3.81
[7]
  Body Weight Gain: 0.43
  Body Weight: 40.19
Week 5, orlistat 40 mg/kg oral
  Weight Gain: −2.34
[8]
  Weight Gain: −1.47
  Total Body Weight: 38.75
Week 6, DIO mice, SIB 10 mg/kg, ORI 40 mg/kg, Mutamba extract 32 (G1) 1000 mg/kg/day oral, mean
  Body Weight Gain: 0.08
Week 6, DIO mice, SIB 10 mg/kg, ORI 40 mg/kg, Mutamba extract 33-2 G1 1000 mg/kg, mean
  Body Weight Gain: 3.52
Week 6, DIO mice, combination (1:1) 2000 mg/kg twice a day, group mean
  Weight Gain: −1.65
[9]
  Weight Gain: −1.65
  Total Body Weight: 36.80
Week 6, ORI 40 mg/kg, DIO mice (Table 52)
  Total Body Weight: 40.04
Week 6, ORI 40 mg/kg, DIO mice
  Total Body Weight: 40.03
Week 6, ORI 40 mg/kg, mice fed high fat diet
  Body Weight Gain: −2.36
[10]
  Body Weight Gain: 3.52
  Body Weight: 43.28
Week 6, orlistat 40 mg/kg oral
  Weight Gain: −1.08
[11]
  Weight Gain: −0.26
  Total Body Weight: 39.96
Week 7, DIO mice, SIB 10 mg/kg, ORI 40 mg/kg, Mutamba extract 32 (G1) 1000 mg/kg/day oral, mean
  Body Weight Gain: 1.81
Week 7, DIO mice, SIB 10 mg/kg, ORI 40 mg/kg, Mutamba extract 33-2 G1 1000 mg/kg, mean
  Body Weight Gain: 3.72
[12]
  Weight Gain: −0.07
  Total Body Weight: 38.38
Week 7, ORI 40 mg/kg, DIO mice (Table 52)
  Total Body Weight: 41.77
Week 7, ORI 40 mg/kg, DIO mice
  Total Body Weight: 40.91
Week 7, ORI 40 mg/kg, mice fed high fat diet
  Body Weight Gain: −1.42
[13]
  Body Weight Gain: 3.72
  Body Weight: 43.49
Week 7, orlistat 40 mg/kg oral
  Weight Gain: 0.02
[14]
  Weight Gain: −0.23
  Total Body Weight: 39.99
Week 8, DIO mice, SIB 10 mg/kg, ORI 40 mg/kg, Mutamba extract 32 (G1) 1000 mg/kg/day oral, mean
  Body Weight Gain: 2.10
Week 8, DIO mice, SIB 10 mg/kg, ORI 40 mg/kg, Mutamba extract 33-2 G1 1000 mg/kg, mean
  Body Weight Gain: 5.13
Week 8, ORI 40 mg/kg, DIO mice (Table 52)
  Total Body Weight: 42.06
[15]
  Body Weight Gain: 5.13
  Body Weight: 44.90
